≈ marks a conversion by molar mass, not a printed value.
Tests used:
Assay type in all cases: cell-based
Strep. fec. MGH 2 = experiment: In vitro minimal inhibitory concentration, Strep. fec. MGH 2
Entero Cloac. IM 11 = experiment: In vitro minimal inhibitory concentration, Entero Cloac. IM 11
Klebs. Pneum. MGH 2 = experiment: In vitro minimal inhibitory concentration, Klebs. Pneum. MGH 2
Staph S 18713 = experiment: In vitro minimal inhibitory concentration, Staph S 18713
Pseudomonas BRK 12-4-4 = experiment: In vitro minimal inhibitory concentration, Pseudomonas BRK 12-4-4; details: BRK1244
Staph UC76 = experiment: In vitro minimal inhibitory concentration, Staph UC76
E. Coli. Vogel = experiment: In vitro minimal inhibitory concentration, E. Coli. Vogel; details: Escherichia coli
Pseudomonas UI 18 = experiment: In vitro minimal inhibitory concentration, Pseudomonas UI 18; details: UI18
Serr. Mar. IMM 16 = experiment: In vitro minimal inhibitory concentration, Serr. Mar. IMM 16
Pseudomonas #28 = experiment: In vitro minimal inhibitory concentration, Pseudomonas #28; details: Pseudomonas #28; in vitro; read-out: Minimal Inhibitory Concentration
Prot Vulg. = experiment: In vitro minimal inhibitory concentration, Prot Vulg.
E. Coli. Brig = experiment: In vitro minimal inhibitory concentration, E. Coli. Brig; details: Escherichia coli

SMILES | MIC (Strep. fec. MGH 2) | MIC (Entero Cloac. IM 11) | MIC (Klebs. Pneum. MGH 2) | MIC (Staph S 18713) | MIC (Pseudomonas BRK 12-4-4) | MIC (Staph UC76) | MIC (E. Coli. Vogel) | MIC (Pseudomonas UI 18) | MIC (Serr. Mar. IMM 16) | MIC (Pseudomonas #28) | MIC (Prot Vulg.) | MIC (E. Coli. Brig)
CC(=O)N[C@H](C)C(=O)Nc1ccc(-c2ccc(C(=O)N[C@@H](C(=O)NC3C(=O)N4C(C(=O)O)=C(CSc5nnnn5C)CSC34)c3ccc(O)cc3)c(=O)[nH]2)cc1 (stereo partly drawn) [Example 25, N-[6-[4(N-Acetyl-D-alanylamino)phenyl]-1,2-dihydro-2-oxonicotinyl]-7-[D-2-amino-2-(4-hydroxyphenyl)acetamido]-3-[[(1-methyl-1H-tetrazol-5-yl)thio]methyl]-3-cephem-4-carboxylic acid] | 12.5 µg/mL (≈ 15.6 µM) | 1.6 µg/mL (≈ 1.99 µM) | 1.6 µg/mL (≈ 1.99 µM) | 6.3 µg/mL (≈ 7.85 µM) | 3.1 µg/mL (≈ 3.86 µM) | 1.6 µg/mL (≈ 1.99 µM) | 0.8 µg/mL (≈ 0.996 µM) | 3.1 µg/mL (≈ 3.86 µM) | 12.5 µg/mL (≈ 15.6 µM) | 3.1 µg/mL (≈ 3.86 µM) | 6.3 µg/mL (≈ 7.85 µM) | 3.1 µg/mL (≈ 3.86 µM)
CC(=O)N[C@H](C)C(=O)Nc1cccc(-c2ccc(C(=O)N[C@@H](C(=O)NC3C(=O)N4C(C(=O)O)=C(COC(C)=O)CSC34)c3ccccc3)c(=O)[nH]2)c1 (stereo partly drawn) [Example 28] | 25 µg/mL (≈ 34.2 µM) | 50 µg/mL (≈ 68.4 µM) | 25 µg/mL (≈ 34.2 µM) | 1.6 µg/mL (≈ 2.19 µM) | 25 µg/mL (≈ 34.2 µM) | 1.6 µg/mL (≈ 2.19 µM) | 12.5 µg/mL (≈ 17.1 µM) | 12.5 µg/mL (≈ 17.1 µM) | > 50 µg/mL | 12.5 µg/mL (≈ 17.1 µM) | 50 µg/mL (≈ 68.4 µM) | 25 µg/mL (≈ 34.2 µM)
CC(=O)NC(C)C(=O)Nc1ccc(-c2ccc(C(=O)N[C@@H](C(=O)NC3C(=O)N4C(C(=O)O)=C(COC(N)=O)CSC34)c3ccccc3)c(=O)[nH]2)cc1 (mixture of isomers) [Example 10, N-[6-[4(N-Acetyl-DL-alanylamino)phenyl]-1,2-dihydro-2-oxonicotinyl]-7-[D-2-amino-2-phenylacetamido]-3-carbamoyloxymethyl-3-cephem-4-carboxylic acid] | 12.5 µg/mL | 25 µg/mL | 12.5 µg/mL | 3.1 µg/mL | 12.5 µg/mL | 1.6 µg/mL | 6.3 µg/mL | 6.3 µg/mL | > 50 µg/mL | 3.1 µg/mL | 12.5 µg/mL | 12.5 µg/mL
CC(=O)N1CC(O)C[C@H]1C(=O)Nc1ccc(-c2ccc(C(=O)N[C@@H](C(=O)NC3C(=O)N4C(C(=O)O)=C(CSc5nnnn5CC(=O)O)CSC34)c3ccccc3)c(=O)[nH]2)cc1 (stereo partly drawn) [Example 30, N-[6-[4-(N-Acetyl-4-hydroxy-L-prolylamino)phenyl]-1,2-dihydro-2-oxonicotinyl]-7-[D-2-amino-2-phenylacetamido]-3-[[(1-carboxymethyl-1H-tetrazol-5-yl)thio]methyl]-3-cephem-4-carboxylic acid] | > 50 µg/mL | 3.1 µg/mL (≈ 3.55 µM) | 1.6 µg/mL (≈ 1.83 µM) | 25 µg/mL (≈ 28.6 µM) | 12.5 µg/mL (≈ 14.3 µM) | 6.3 µg/mL (≈ 7.22 µM) | 0.8 µg/mL (≈ 0.916 µM) | 6.3 µg/mL (≈ 7.22 µM) | 12.5 µg/mL (≈ 14.3 µM) | 6.3 µg/mL (≈ 7.22 µM) | 1.6 µg/mL (≈ 1.83 µM) | 3.1 µg/mL (≈ 3.55 µM)
CC(=O)OCC1=C(C(=O)O)N2C(=O)C(NC(=O)[C@H](NC(=O)c3ccc(-c4ccc(NC(=O)[C@@H]5CCCN5C(C)=O)cc4)[nH]c3=O)c3ccccc3)C2SC1 (stereo partly drawn) [Example 12, N-[6-[4-(N-Acetyl-L-prolylamino)phenyl]-1,2-dihydro-2-oxonicotinyl]-7-[D-2-amino-2-phenylacetamido]-3-acetoxymethyl-3-cephem-4-carboxylic acid] | 12.5 µg/mL (≈ 16.5 µM) | 12.5 µg/mL (≈ 16.5 µM) | 6.3 µg/mL (≈ 8.32 µM) | 3.1 µg/mL (≈ 4.1 µM) | 12.5 µg/mL (≈ 16.5 µM) | 0.8 µg/mL (≈ 1.06 µM) | 3.1 µg/mL (≈ 4.1 µM) | 6.3 µg/mL (≈ 8.32 µM) | 50 µg/mL (≈ 66.1 µM) | 6.3 µg/mL (≈ 8.32 µM) | 25 µg/mL (≈ 33 µM) | 6.3 µg/mL (≈ 8.32 µM)

From patent US4311698A, “Aminoacid derivatives of cephalosporin compounds” (priority 1980, dated 1982)
